Results as given in PubChem BioAssay AID256 (DTP/NCI, 2004).
“And” between values parts separate entries of the source, which are not always exact repeats. Equal values may be shown once. Toxic doses and inconclusive results are not listed.

Tested on: CD2F1 mice, L1210 leukemia ip, survival T/C
Experiment: NCI In Vivo Anticancer Drug Screen. Data for tumor model L1210 Leukemia (intraperitoneal) in CD2F1 (CDF1) mice
Conditions: endpoint: mean survival time, higher = longer survival
In short: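 In this screen, transplantable tumors were grown in mice given either the compound or its vehicle. Results were expressed as the treated measurement relative to the control measurement.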

[1] = dose: 200.0 mg/kg/injection, schedule: Q01DX009 (ip), vehicle: saline with Tween-80
[2] = dose: 400.0 mg/kg/injection, schedule: Q01DX009 (ip), vehicle: saline with Tween-80
[3] = dose: 100.0 mg/kg/injection, schedule: Q01DX009 (ip), vehicle: saline
[4] = dose: 200.0 mg/kg/injection, schedule: Q01DX009 (ip), vehicle: saline
[5] = dose: 400.0 mg/kg/injection, schedule: Q01DX009 (ip), vehicle: saline
[6] = dose: 200.0 mg/kg/injection, schedule: Q01DX001 (ip), vehicle: saline
[7] = dose: 200.0 mg/kg/injection, schedule: Q04DX003 (ip), vehicle: saline
[8] = dose: 100.0 mg/kg/injection, schedule: Q04DX002 (ip), vehicle: saline with Tween-80
[9] = dose: 200.0 mg/kg/injection, schedule: Q04DX002 (ip), vehicle: saline with Tween-80
[10] = dose: 100.0 mg/kg/injection, schedule: Q04DX003 (ip), vehicle: saline
[11] = dose: 100.0 mg/kg/injection, schedule: Q01DX009 (ip), vehicle: saline with Tween-80
[12] = dose: 100.0 mg/kg/injection, schedule: Q04DX003 (ip), vehicle: saline with Tween-80
[13] = dose: 200.0 mg/kg/injection, schedule: Q04DX003 (ip), vehicle: saline with Tween-80
[14] = dose: 400.0 mg/kg/injection, schedule: Q04DX003 (ip), vehicle: saline with Tween-80
[15] = dose: 100.0 mg/kg/injection, schedule: Q01DX001 (ip), vehicle: saline with Tween-80
[16] = dose: 200.0 mg/kg/injection, schedule: Q01DX001 (ip), vehicle: saline with Tween-80
[17] = dose: 400.0 mg/kg/injection, schedule: Q01DX001 (ip), vehicle: saline with Tween-80

Structure (SMILES): COc1ccc(OC)c(NC(=O)NNC(=O)CNC(=O)Nc2cccc(C)n2)c1
- T/C [1]: 92 % of control
- T/C [2]: 88 % of control

Structure (SMILES): Cc1ccc(C(SCC(N)C(=O)O)(c2ccc(C)cc2)c2ccc(C)cc2)cc1 (stereo not given)
- T/C [3]: 175 % of control
- T/C [4]: 210 % of control
- T/C [5]: 200 % of control

Structure (SMILES): CN(CCCOS(C)(=O)=O)CCCOS(C)(=O)=O
- T/C (dose: 6.3 mg/kg/injection, schedule: Q01DX009 (ip), vehicle: saline): 123 % of control
- T/C (dose: 6.3 mg/kg/injection, schedule: Q04DX003 (ip), vehicle: saline): 117 % of control and 119 % of control and 109 % of control
- T/C (dose: 8.4 mg/kg/injection, schedule: Q01DX009 (oral), vehicle: saline): 104 % of control
- T/C (dose: 12.5 mg/kg/injection, schedule: Q01DX001 (ip), vehicle: saline): 108 % of control
- T/C (dose: 39.0 mg/kg/injection, schedule: Q01DX009 (oral), vehicle: saline): 121 % of control
- T/C (dose: 65.0 mg/kg/injection, schedule: Q01DX001 (oral), vehicle: saline): 104 % of control
- T/C [3]: 87 % of control and 105 % of control and 93 % of control
- T/C (dose: 108.0 mg/kg/injection, schedule: Q01DX001 (oral), vehicle: saline): 102 % of control
- T/C [6]: 118 % of control
- T/C [7]: 87 % of control and 88 % of control
- T/C (dose: 300.0 mg/kg/injection, schedule: Q01DX001 (oral), vehicle: saline): 114 % of control

Structure (SMILES): COc1ccccc1NC(=O)Oc1ccc(-c2ccccc2)cc1Cl
- T/C [8]: 100 % of control
- T/C [9]: 103 % of control
- T/C (dose: 400.0 mg/kg/injection, schedule: Q04DX002 (ip), vehicle: saline with Tween-80): 88 % of control

Structure (SMILES): O=C1OC(C(O)CO)C(O)=C1O (stereo not given)
- T/C (dose: 100.0 mg/kg/injection, schedule: Q01DX001 (ip), vehicle: saline): 101 % of control
- T/C [3]: 93 % of control and 108 % of control
- T/C (dose: 100.0 mg/kg/injection, schedule: Q04DX002 (ip), vehicle: saline): 109 % of control and 112 % of control
- T/C [10]: 106 % of control
- T/C [6]: 101 % of control
- T/C [4]: 86 % of control and 102 % of control
- T/C (dose: 200.0 mg/kg/injection, schedule: Q04DX002 (ip), vehicle: saline): 97 % of control and 104 % of control
- T/C [7]: 98 % of control
- T/C (dose: 400.0 mg/kg/injection, schedule: Q01DX001 (ip), vehicle: saline): 106 % of control
- T/C [5]: 89 % of control and 96 % of control
- T/C (dose: 400.0 mg/kg/injection, schedule: Q04DX002 (ip), vehicle: saline): 96 % of control and 102 % of control
- T/C (dose: 400.0 mg/kg/injection, schedule: Q04DX003 (ip), vehicle: saline): 98 % of control

Structure (SMILES): CC1=NOC(=O)C1C(C)(C)C1C(=O)ON=C1C (stereo not given)
- T/C [11]: 107 % of control
- T/C [1]: 104 % of control
- T/C [2]: 104 % of control

Structure (SMILES): O=C(N/N=C/c1ccc2c(c1)CCC2)c1ccncc1
- T/C [12]: 98 % of control
- T/C [13]: 96 % of control
- T/C [14]: 98 % of control

Structure (SMILES): OC1COC(C(F)(F)F)(C(F)(F)F)C1 (stereo not given)
- T/C [12]: 94 % of control
- T/C [13]: 93 % of control
- T/C [14]: 96 % of control

Structure (SMILES): [Cl][Pt+2][Cl].[NH-]c1ccc(F)cc1.[NH-]c1ccc(F)cc1
- T/C (dose: 3.13 mg/kg/injection, schedule: Q04DX003 (ip), vehicle: distilled water + Tween-80): 102 % of control
- T/C (dose: 6.25 mg/kg/injection, schedule: Q04DX003 (ip), vehicle: distilled water + Tween-80): 104 % of control
- T/C (dose: 12.5 mg/kg/injection, schedule: Q04DX003 (ip), vehicle: distilled water + Tween-80): 102 % of control
- T/C (dose: 25.0 mg/kg/injection, schedule: Q04DX003 (ip), vehicle: distilled water + Tween-80): 108 % of control
- T/C (dose: 50.0 mg/kg/injection, schedule: Q04DX003 (ip), vehicle: distilled water + Tween-80): 108 % of control
- T/C (dose: 100.0 mg/kg/injection, schedule: Q04DX003 (ip), vehicle: distilled water + Tween-80): 93 % of control

Structure (SMILES): O=C(C[n+]1cc(Br)cc2ccccc21)c1ccc(O)c(O)c1
- T/C [3]: 110 % of control
- T/C [4]: 111 % of control
- T/C [5]: 102 % of control

Structure (SMILES): CNC1CCC(C(=O)O)CC1 (stereo not given)
- T/C [3]: 107 % of control
- T/C [4]: 103 % of control
- T/C [5]: 96 % of control

Structure (SMILES): C(=N\Nc1ccccc1)/c1ccc2c(c1)OCO2
- T/C [15]: 100 % of control
- T/C [11]: 97 % of control
- T/C [16]: 101 % of control
- T/C [1]: 104 % of control
- T/C [17]: 95 % of control
- T/C [2]: 100 % of control

Structure (SMILES): CCN(CC)CCCC(C)NS(=O)(=O)c1cccc2c(N(C)C)cccc12 (stereo not given)
- T/C (dose: 25.0 mg/kg/injection, schedule: Q01DX009 (ip), vehicle: water): 102 % of control
- T/C (dose: 50.0 mg/kg/injection, schedule: Q01DX009 (ip), vehicle: water): 98 % of control
- T/C (dose: 100.0 mg/kg/injection, schedule: Q01DX009 (ip), vehicle: water): 96 % of control

Structure (SMILES): O=[N+]([O-])c1cccc(-c2nn[nH]n2)c1
- T/C [15]: 93 % of control
- T/C [11]: 98 % of control
- T/C [12]: 97 % of control
- T/C [16]: 104 % of control
- T/C [1]: 117 % of control
- T/C [13]: 97 % of control
- T/C [17]: 88 % of control
- T/C [2]: 101 % of control
- T/C [14]: 103 % of control

Structure (SMILES): COc1ccc(/C=C/C(CC(NO)c2ccc(OC)cc2)=N/O)cc1 (stereo not given)
- T/C (dose: 12.5 mg/kg/injection, schedule: Q04DX003 (ip), vehicle: saline with Tween-80): 101 % of control
- T/C (dose: 25.0 mg/kg/injection, schedule: Q01DX001 (ip), vehicle: saline with Tween-80): 103 % of control
- T/C (dose: 25.0 mg/kg/injection, schedule: Q04DX003 (ip), vehicle: saline with Tween-80): 101 % of control
- T/C (dose: 50.0 mg/kg/injection, schedule: Q01DX001 (ip), vehicle: saline with Tween-80): 104 % of control
- T/C (dose: 50.0 mg/kg/injection, schedule: Q04DX003 (ip), vehicle: saline with Tween-80): 102 % of control
- T/C [12]: 95 % of control
- T/C [16]: 97 % of control
- T/C [13]: 98 % of control

Structure (SMILES): CN(C)N=Nc1c(F)c(F)c(C(N)=O)c(F)c1F
- T/C (dose: 3.13 mg/kg/injection, schedule: Q01DX009 (ip), vehicle: other): 115 % of control
- T/C (dose: 6.25 mg/kg/injection, schedule: Q01DX009 (ip), vehicle: other): 120 % of control
- T/C (dose: 50.0 mg/kg/injection, schedule: Q01DX009 (ip), vehicle: other): 96 % of control
- T/C (dose: 100.0 mg/kg/injection, schedule: Q01DX009 (ip), vehicle: other): 105 % of control

Structure (SMILES): O=[N+]([O-])c1ccc(/C=C/C=C/c2ccc(Cl)cc2Cl)cc1
- T/C [12]: 97 % of control
- T/C [13]: 104 % of control
- T/C [14]: 98 % of control

Structure (SMILES): CN1CCN(CCCN2CC3CC=CCC3C2)CC1 (stereo not given)
- T/C [10]: 105 % of control
- T/C [7]: 100 % of control

Structure (SMILES): CC(=O)OC1C=CC(OC(C)=O)O1 (stereo not given)
- T/C (dose: 0.75 mg/kg/injection, schedule: Q01DX009 (ip), vehicle: saline with Tween-80): 103 % of control
- T/C (dose: 1.5 mg/kg/injection, schedule: Q01DX009 (ip), vehicle: saline with Tween-80): 101 % of control
- T/C (dose: 1.88 mg/kg/injection, schedule: Q04DX003 (ip), vehicle: saline): 96 % of control
- T/C (dose: 3.0 mg/kg/injection, schedule: Q01DX009 (ip), vehicle: saline with Tween-80): 95 % of control
- T/C (dose: 3.75 mg/kg/injection, schedule: Q04DX003 (ip), vehicle: saline): 98 % of control
- T/C (dose: 7.5 mg/kg/injection, schedule: Q01DX001 (ip), vehicle: saline): 106 % of control
- T/C (dose: 7.5 mg/kg/injection, schedule: Q04DX003 (ip), vehicle: saline): 102 % of control

Structure (SMILES): COC1CCC2=C(C1)C(=O)CC1c3ccccc3CN21 (stereo not given)
- T/C [12]: 97 % of control

Structure (SMILES): CCCCCCCCCCCCOB(OCCCCCCCCCCCC)OCCCCCCCCCCCC
- T/C [12]: 95 % of control
- T/C [13]: 103 % of control
- T/C [14]: 94 % of control

Structure (SMILES): S=c1cn[nH]c2ccc(Br)cc12
- T/C (dose: 100.0 mg/kg/injection, schedule: Q01DX001 (ip), vehicle: other): 96 % of control
- T/C (dose: 200.0 mg/kg/injection, schedule: Q01DX001 (ip), vehicle: other): 103 % of control
- T/C (dose: 400.0 mg/kg/injection, schedule: Q01DX001 (ip), vehicle: other): 92 % of control

Structure (SMILES): CC(=O)OC(c1ccccc1)C(Cl)(Cl)Cl (stereo not given)
- T/C [12]: 100 % of control
- T/C [13]: 105 % of control
- T/C [14]: 105 % of control

Structure (SMILES): CNC(=O)Nc1nnnc2ccccc12
- T/C [12]: 95 % of control

Structure (SMILES): O=[N+]([O-])c1ccc(/C=C2\c3ccccc3-c3nc4ccccc4nc32)cc1
- T/C (dose: 75.0 mg/kg/injection, schedule: Q01DX009 (ip), vehicle: saline): 86 % of control
- T/C (dose: 150.0 mg/kg/injection, schedule: Q01DX009 (ip), vehicle: saline): 88 % of control
- T/C (dose: 300.0 mg/kg/injection, schedule: Q01DX009 (ip), vehicle: saline): 95 % of control

Structure (SMILES): C=CCc1cc(O)c(CC=C)cc1O
- T/C [8]: 95 % of control
- T/C [9]: 95 % of control
